Results: patent US9855239B2, “Methods for the treatment and prevention of age-related retinal dysfunction” (University of Washington, priority 2008, dated 2018)
Entries after “also recorded” stand apart in the source; their conditions may differ.

Legend:
[1] = system: Lrat−/− and Rpe65−/− knockout mice; conditions: cited from earlier work
[2] = system: C57BL/6 female mice; experiment: Single flash ERG analyses after long-term treatment; assay type: in vivo, mouse; conditions: 14 months of age, monthly gavage ~80 mg/kg (9-cis-R-Ac: N2 and N3), vs control C2; 80 mg/kg
From the text: To evaluate the effects of rod- and cone-mediated light responses after long-term 9-cis-R-Ac treatments, mice were examined by non-invasive ERG methods. The first set of analyses was done at 4 and 10 months of age. Under scotopic conditions, the amplitudes of a-waves decreased with age, especially at high flash intensities (C1 versus C0 group, FIG. 4A, left top panel), whereas the changes in b-waves were less evident (FIG. 4A, right top panel).
The second set of analyses was done at 14 months of age.
(§1) Six groups of mice were studied (FIG. 1B).
(§2) Two weeks after the last gavage with either, 9-cis-R-Ac, all-trans-R-Ac or vehicle, groups of 48 hr dark-adapted mice were analyzed for recovery of dark adaptation after light exposure, purified rhodopsin/opsin and retinoids in the eye and retinal morphology (FIG. 1C; Methods). Mice were exposed to light of intensity 500 cd·m^−2 that bleached ˜90% of rhodopsin, anesthetized and monitored by ERG for one hr to evaluate recovery of dark adaptation. Rhodopsin was purified and rhodopsin/opsin ratios was determined. Retinoid analyses were performed on dissected eyes removed at 0, 10, 30, and 60 min after exposure to the same amount of light. Mice used to evaluate retinal morphology were not exposed to photobleaching prior to analysis.
(§3) ERGs of anesthetized mice were recorded as previously reported.

[3] = system: C57BL/6 female mice; experiment: Recovery of ERG response (dark adaptation) after bleach, long-term treatment; assay type: in vivo, mouse; conditions: 14 months of age, treated (9-cis-R-Ac: N2 and N3) vs C2; 500 cd·m^−2 for 3 min, 60 min dark adaptation
Experimental: Recovery of the ERG response (dark adaptation) following bleach was measured by monitoring the amplitude of a-waves after retinal exposure to intense constant illumination (500 cd·m^−2, ˜90% bleached rhodopsin) for 3 min. […] Retinoid kinetics in the eyes of each group were quantitatively evaluated during 60 min of dark adaptation after 3 min of bleaching at four subsequent time points of dark adaptation (0, 10, 30, and 60 min). […] Neither 9-cis-retinal nor 9-cis-retinyl esters were found in eyes from untreated groups (data not shown).
as §1, §2, §3

[4] = system: retina; experiment: Retinal morphology (light and electron microscopy); assay type: in vivo, mouse; conditions: 10 and 14 months of age
Experimental: The thickness of each major layer in the retina was also similar between control and treated groups.
For light microscopy, mouse eyecups were fixed with 2.5% glutaraldehyde and 1.6% paraformaldehyde in 0.08 M 1,4-piperazinediethanesulfonate buffer (PIPES) (pH 7.4) containing 2% sucrose for ˜1 hr at room temperature followed by 23 hr at 4° C. Eyecups then were washed with 0.13 M sodium phosphate buffer (pH 7.3) and dehydrated through a CH3OH series and embedded in JB4 glycol metacrylate. Sections (6 μm) were stained by immersion in 5% Richardson's stain for 1.5-2 min at room temperature and destained in 0.13 M sodium phosphate (pH 7.3) until the retinal layers were visible by light microscopy (about 8-15 min). For transmission electron microscopy, mouse eyecups were analyzed as described previously (Maeda, A., et al. J Blot Chem 280, 18822-18832 (2005); Maeda, T., Lem, J., Palczewski, K. & Haeseleer, F. Investigative ophthalmology & visual science 46, 4320-4327 (2005)).

Structure (SMILES): CC1=C(/C=C/C(C)=C\C=C\C(C)=C\C=O)C(C)(C)CCC1 [9-cis-retinal]
- retinal morphology and rod function (single cell recordings, ERG) ([1]; mouse, in vivo, po): preserved retinal morphology and recovery of normal rod function

Structure (SMILES): CC1=C(/C=C/C(C)=C/C=C/C(C)=C/C=O)C(C)(C)CCC1 [11-cis-retinal]
- vision ([1]; intraperitoneal injection, Rpe65−/− mice): improves vision

Structure (SMILES): CC(=O)OC/C=C(C)/C=C/C=C(C)/C=C/C1=C(C)CCCC1(C)C [all-trans-R-Ac, reference compound]
- a- and b-wave amplitudes, scotopic and photopic single flash ERG [2]: no significant difference; also recorded: no effect
- recovery of ERG a-wave response (dark adaptation) after bleach [3]: no significant difference
- retinal abnormalities by light microscopy [4]: no major abnormalities
